Measurements reported in PubChem BioAssay AID330 (DTP/NCI, 2004).
Where “and” joins values, the source holds several entries; their conditions need not be identical. Identical values can stand only once. Toxic doses and inconclusive results are not listed.

System: P388 leukemia ip, CD2F1 mice, survival T/C
Assay: NCI In Vivo Anticancer Drug Screen. Data for tumor model P388 Leukemia (intraperitoneal) in CD2F1 (CDF1) mice
Settings: endpoint: median survival time, higher = longer survival
In short: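 Mice carrying the transplanted tumor received test compound or vehicle. Survival was recorded in each group, and the value is the treated-group measurement divided by that of the vehicle-treated control group.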

[1] = dose: 50.0 mg/kg/injection, schedule: Q01DX009 (ip), vehicle: saline with Tween-80
[2] = dose: 100.0 mg/kg/injection, schedule: Q01DX009 (ip), vehicle: saline with Tween-80
[3] = dose: 200.0 mg/kg/injection, schedule: Q01DX009 (ip), vehicle: saline with Tween-80

## C#CCNC(=S)N/N=C(\C)c1ccccn1
dose: 3.13 mg/kg/injection, schedule: Q01DX009 (ip), vehicle: saline with Tween-80
  T/C: 97 % of control
dose: 6.25 mg/kg/injection, schedule: Q01DX009 (ip), vehicle: saline with Tween-80
  T/C: 97 % of control
dose: 12.5 mg/kg/injection, schedule: Q01DX009 (ip), vehicle: saline with Tween-80
  T/C: 103 % of control

## NCCCCC(NC(=O)c1ccccc1)C(=O)O (stereo unspecified)
[1]
  T/C: 98 % of control
[2]
  T/C: 100 % of control
[3]
  T/C: 104 % of control

## CC(/C=C/c1cccc(C)c1)=N\NC(N)=O
dose: 60.0 mg/kg/injection, schedule: Q01DX005 (ip), vehicle: Klucel (hydroxypropylcellulose) (HPC)
  T/C: 107 % of control
dose: 120.0 mg/kg/injection, schedule: Q01DX005 (ip), vehicle: Klucel (hydroxypropylcellulose) (HPC)
  T/C: 104 % of control
dose: 240.0 mg/kg/injection, schedule: Q01DX005 (ip), vehicle: Klucel (hydroxypropylcellulose) (HPC)
  T/C: 115 % of control

## COc1ccc(Cc2coc3ccccc3c2=O)cc1OC
dose: 60.0 mg/kg/injection, schedule: Q01DX005 (ip), vehicle: saline with Tween-80
  T/C: 102 % of control
dose: 120.0 mg/kg/injection, schedule: Q01DX005 (ip), vehicle: saline with Tween-80
  T/C: 97 % of control
dose: 240.0 mg/kg/injection, schedule: Q01DX005 (ip), vehicle: saline with Tween-80
  T/C: 97 % of control

## Cc1oc(N)c(C#N)c1C
dose: 100.0 mg/kg/injection, schedule: Q01DX009 (ip), vehicle: saline sonified
  T/C: 110 % of control
dose: 200.0 mg/kg/injection, schedule: Q01DX009 (ip), vehicle: saline sonified
  T/C: 115 % of control
dose: 400.0 mg/kg/injection, schedule: Q01DX009 (ip), vehicle: saline sonified
  T/C: 120 % of control

## CS(=O)(=O)C(c1nc2nnc(N)n2[nH]c1=O)c1nc2nnc(N)n2[nH]c1=O
dose: 60.0 mg/kg/injection, schedule: Q01DX005 (ip), vehicle: saline
  T/C: 99 % of control
dose: 120.0 mg/kg/injection, schedule: Q01DX005 (ip), vehicle: saline
  T/C: 105 % of control
dose: 240.0 mg/kg/injection, schedule: Q01DX005 (ip), vehicle: saline
  T/C: 105 % of control

## COC(CN1C(=O)CSC1=S)OC
[1]
  T/C: 114 % of control
[2]
  T/C: 117 % of control
[3]
  T/C: 117 % of control

## CCOC(=O)c1c(C)c2c(n1C)CCc1c-2nc(N)[nH]c1=O
dose: 50.0 mg/kg/injection, schedule: Q01DX009 (ip), vehicle: Klucel (hydroxypropylcellulose) (HPC)
  T/C: 97 % of control
dose: 100.0 mg/kg/injection, schedule: Q01DX009 (ip), vehicle: Klucel (hydroxypropylcellulose) (HPC)
  T/C: 97 % of control
dose: 200.0 mg/kg/injection, schedule: Q01DX009 (ip), vehicle: Klucel (hydroxypropylcellulose) (HPC)
  T/C: 88 % of control

## Cc1cc(NCCCCCCNc2cc(C)nc3cc(N(C)C)ccc23)c2ccc(N(C)C)cc2n1
dose: 1.56 mg/kg/injection, schedule: Q01DX009 (ip), vehicle: distilled water + Tween-80 + alcohol
  T/C: 110 % of control
dose: 6.25 mg/kg/injection, schedule: Q01DX009 (ip), vehicle: distilled water + Tween-80 + alcohol
  T/C: 151 % of control
dose: 12.5 mg/kg/injection, schedule: Q01DX009 (ip), vehicle: distilled water + Tween-80 + alcohol
  T/C: 154 % of control and 158 % of control
dose: 25.0 mg/kg/injection, schedule: Q01DX009 (ip), vehicle: distilled water + Tween-80 + alcohol
  T/C: 178 % of control and 181 % of control

## COC(=O)C1(C)C(OC(C)=O)CC2C3C(CC4CC(OC(C)=O)CCC42C)OC(=O)CC31 (stereo unspecified)
dose: 0.25 mg/kg/injection, schedule: Q01DX009 (ip), vehicle: distilled water + Tween-80
  T/C: 99 % of control
dose: 0.5 mg/kg/injection, schedule: Q01DX009 (ip), vehicle: distilled water + Tween-80
  T/C: 101 % of control
dose: 1.0 mg/kg/injection, schedule: Q01DX009 (ip), vehicle: distilled water + Tween-80
  T/C: 102 % of control
dose: 2.0 mg/kg/injection, schedule: Q01DX009 (ip), vehicle: distilled water + Tween-80
  T/C: 104 % of control
dose: 4.0 mg/kg/injection, schedule: Q01DX009 (ip), vehicle: distilled water + Tween-80
  T/C: 100 % of control and 104 % of control
dose: 8.0 mg/kg/injection, schedule: Q01DX009 (ip), vehicle: distilled water + Tween-80
  T/C: 106 % of control and 111 % of control
dose: 16.0 mg/kg/injection, schedule: Q01DX009 (ip), vehicle: distilled water + Tween-80
  T/C: 94 % of control
dose: 32.0 mg/kg/injection, schedule: Q01DX009 (ip), vehicle: distilled water + Tween-80
  T/C: 87 % of control
dose: 64.0 mg/kg/injection, schedule: Q01DX009 (ip), vehicle: distilled water + Tween-80
  T/C: 100 % of control

## CCCCCCCCCCCCOP(=O)(N1CC1(C)C)N1CC1(C)C (stereo unspecified)
dose: 2.0 mg/kg/injection, schedule: Q01DX009 (ip), vehicle: saline with Tween-80
  T/C: 108 % of control and 113 % of control
dose: 4.0 mg/kg/injection, schedule: Q01DX009 (ip), vehicle: saline with Tween-80
  T/C: 103 % of control and 108 % of control
dose: 8.0 mg/kg/injection, schedule: Q01DX009 (ip), vehicle: saline with Tween-80
  T/C: 114 % of control and 117 % of control
dose: 16.0 mg/kg/injection, schedule: Q01DX009 (ip), vehicle: saline with Tween-80
  T/C: 102 % of control and 117 % of control
